# Where two headings read alike, the source gives them in different places.
# Experiments:
# [1] = system: rat heart; experiment: Coronary blood flow (PCS2A): isolated perfused heart
# Description: CORONARY BLOOD FLOW (PCS2A)
# Male rats (400-600 gms) are pretreated with Na haparin 2000 units and anesthetized with Na pentobarbital (50 mg/kg) administered intraperitoneally. Once anesthetized, the rat heart is rapidly excised, the ascending aorta fitted to the aortic perfusion cannula, and […] with a ligature. The coronary arteries are perfused initially at a rate of about 15 ml/min for two to three minutes, afterwhich they are perfused at constant pressure of 70 mm Hg and temperature of 37°C. The electrocardiogram (ECG) is recorded using two platinum electrodes positioned at the base and apex of the left ventricle. A second heart is excised, cannulated, and perfused by the same method outlined above. Both hearts are tested in parallel. The standard physiological salt solution (PSS) is a modified Krebs-Hanseleit bicarbonate buffer of the following composition in mM concentration: NaCI, 127; NaHC03, 25; dextrose, 5.5; Na Pyruvate, 2.0: KCI, 4.7; MgS04, 1.1; KH 2P04, 1.2; CaCl2·2H2O, 2.5; CaNa2 EDTA, 0.05.
# A 30-minute stabilization period is observed before starting the test protocol.
# The microprocessor control system is a servo mechanism which permits coronary perfusion pressure (CPP) and drug concentration to be maintained constant independent of changes in coronary flow. The level at which CPP and drug concentration are maintained can be changed by commands communicated through the microprocessor keyboard. Dose-response curves are carried out by perfusing concentrated drug solution (DC) at rates proportional to total coronary flow (CFT). Drug concentrations are increased by proportionate increases in the rate of DC infusion over CFT via the microprocessor keyboard. The proportional flow rates for DC:CFT is about .0002:1 at the low end and .02: at the high end of the dose-response curve. Dose-response curves encompassing at least two log doses are carried out by preparing two DCs with a concentration difference of 1:100. Following the first dose range of two log doses, the DC are switched, proportional pumping rate adjusted, and the dose-response curve continued for another two log doses. The standard dose-response curve is carried out in one-half log dose increments starting at a subthreshold dose and ending at a dose which produces near maximal response in activity. Standard reference compounds are tested over the range of 10-^9 to 10-^6M.
# Measurements are for heart rate (HR) and coronary flow (CF). Units are: HR, beats/minute (bpm) and CF, milliliters/minute (ml/min). HR is calculated from the ECG strip chart recording and CF is calculated by recording analog outputs from pumps 1 and 2. Outputs from pump #1 = CFT and the output from pump #2 = CF for heart B (CFg). CF for heart A (CFA) is calculated (CFT - CFB = CFA).
# Using the above technique, the effects of the compound of Examples 1 and 2 are as follows: […]
# [2] = system: Swiss-Webster male mice; experiment: Mouse Activity and Screen Test (MAST): inhibition of spontaneous locomotion (LI); type: in vivo
# Description: (§1) Treatments are administered intraperitoneally one hour prior to testing. […] Compounds are dissolved or suspended in 0.2% Methocel. Control animals are injected with Methocel.
# Immediately following the screen test, the final phase of testing is initiated by placing each group of three mice in one actophotometer (Life Sciences, 22, 1067-1076, 1978). The actophotometer consists of a cylindrical chamber whose center is occupied by another cylinder which contains the illumination for six photocells located on the perimeter of the chamber. Six light-beam interruptions equal one count. Locomotor activity is recorded by computer at ten minute intervals for 60 minutes. […]
# [3] = system: Swiss-Webster male mice; experiment: Mouse Activity and Screen Test (MAST): screen test (ST); type: in vivo; settings: lowest dose at which an A rating (60-100%) is achieved, screen test; intraperitoneally
# Description: as §1
# The compounds are identified in the Examples.
# [4] = system: conscious rat; experiment: Antihypertensive evaluation (AHP3): aortic blood pressure and heart rate; type: in vivo; settings: read-out: AHP3 BP LAD
# Excerpt: […] EVALUATION (AHP3)
# This test procedure is described in the following paragraphs.
# A Method for the Direct Monitoring of Aortic Blood Pressure and Heart Rate from Conscious Rats
# The continuous monitoring of pulsatile blood pressure (BP) from unrestrained conscious rats surgically equipped with polyethylene cannulas was accomplished by means of a computer assisted data capture scheme (CADCS). The absic elements of the methodology are the cannulation procedure and the CADCS.
# Cannulation Procedure: Rats were anesthetized with Telazol (1:1 tiletamine HCI and zolazepam HCI); 20-40 mg/kg IM and the descending aorta exposed via a midline incision. Cannulas fabricated from polyethylene tubing were inserted into the aorta via an undersized puncture hole below the renal arteries. The puncture hole was made by a 23 G disposable needle with a section of the aorta clamped off above and below the puncture site. The cannulas, consisting of a PE100 (0.86 mm ID) body and a PE50 (0.58 mm ID) tip, were attached to a trocar, inserted through the psoas muscle, and passed subcutaneously along the midline of the back and externalized between the ears. The cannulas were anchored to the psoas muscle and between the scalulae (3-0 green braided suture). The midline incision was closed in two steps (muscle first, skin second) using continuous over-and over sutures (4-0 chronic). Each rat was then given penicillin 30,000 units subcutaneously (Penicillin G Procaine Sterile Suspension).
# The rats were fitted with a harness-spring-swivel assembly designed to protect the cannula and to provide the rat relative freedom of movement. The harnesses were fabricated from nylon hook and loop tape cemented to a metal plate to which spring wires (18-8 stainless steel), were attached to brass swivels. Each polyethylene cannula was channeled through a spring and connected through a swivel to a pressure transducer (Model P23Gb; Statham Instruments; Hato Rey, Puerto Rico) and an infusion pump (Sage model 234-7; Orion Research, Cambridge, Ma) by means of PE100 tubing. While on test, each rat received a continuous slow infusion of heparinized saline solution (approximately 400 I or 40 units of heparin per 24 hour period) to prevent clot formation. Additional "flushes" of the cannula with heparinized saline were carried out when the aortic pulse pressure (systolic minus diastolic) was less than 25 mm Hg.
# CADCS: The pulsatile blood pressure and heart rate of each of 32 rats was monitored every minute by means of two in-laboratory microcomputers communicating directly with a data concentrator computer. The data were first stored on the data concentrator disk and then transferred to a magnetic tape for analysis and report generation by the main research computer. The overall scheme involved modulating the primary signal from the pressure transducer, generating the primary data set of the one-minute values for systolic, diastolic, and mean blood pressures and heart rate by the in-lab microcomputer and the storage, analysis, and report generation by the main research computer.
# The transducers were connected to analog signal conditioning modules. The modules providing a regulated excitation voltage for the transducers, amplification as required to interface the microprocessors and an active low pass filter to compensate for the pressure wave form distortion produced by the flexible, fluid filled, narrow cannula.
# The microcomputers (one for each of two groups of 16 rats) were connected to the input components through the module interface units, an analog-to-digital converter for the pressure wave form signal and the digital inputs for the dose and event marker switches. The microcomputer controlled the sequential acquisition of data from the modular interface units through an internal synchronous time-of-day clock/ time base generator. […]
# [5] = coronary flow, isolated perfused rat heart, read-out: PCS2A CF ED50
# [6] = heart rate, isolated perfused rat heart, read-out: PCS2A HR ED50
# [7] = Mus musculus, ip; read-out: MAST LI LAD
# [8] = lowest dose tested at which a >10% reduction in blood pressure for four consecutive hours is achieved, conscious rat
SMILES,"EC50 [1, 5] [nM]",MAST ST LAD [3] [mg/kg],"EC50 [1, 6] [nM]","minimal effective dose [2, 7] [mg/kg]","minimal effective dose [4, 8] [mg/kg]","EC50 ([1]; Rattus norvegicus, read-out: PCS2A CF ED50) [nM]","EC50 ([1]; Rattus norvegicus, read-out: PCS2A HR ED50) [nM]","minimal effective dose ([2]; Mus musculus, ip, read-out: MAST LI LAD) [mg/kg]",minimal effective dose ([4]; Rattus norvegicus) [mg/kg]
"O=[N+]([O-])c1ccc(C(CNc2ncnc3c2ncn3[C@@H]2O[C@H](CO)[C@@H](O)[C@H]2O)c2ccc([N+](=O)[O-])cc2)cc1 [Example 20, N^6-(2,2-Di-(4-nitrophenyl)ethyl)adenosine]",,>100,,,,300,> 3000,100,> 10
"OC[C@H]1O[C@@H](n2cnc3c(NCC(O)(c4ccccc4)c4ccccc4)ncnc32)[C@H](O)[C@@H]1O [Example 22, N^6-(2,2-Diphenyl-2-hydroxyethyl)adenosine]",> 1000,100,500,1,10,,,,

# The next lines start with results.
"EC50 [1, 5] [nM]",MAST ST LAD [3] [mg/kg],SMILES,"EC50 [1, 6] [nM]","minimal effective dose [2, 7] [mg/kg]","minimal effective dose [4, 8] [mg/kg]","EC50 ([1]; Rattus norvegicus, read-out: PCS2A CF ED50) [nM]","EC50 ([1]; Rattus norvegicus, read-out: PCS2A HR ED50) [nM]","minimal effective dose ([2]; Mus musculus, ip, read-out: MAST LI LAD) [mg/kg]",minimal effective dose ([4]; Rattus norvegicus) [mg/kg]
30,30,"COc1ccc(C(CNc2ncnc3c2ncn3[C@@H]2O[C@H](CO)[C@@H](O)[C@H]2O)c2ccccc2)cc1 (stereo partly shown) [Example 19, N^6-(2-(4-Methoxyphenyl)-2-phenylethyl)adenosine]",> 3000,10,10,,,,
> 10000,>100,"CC(CNc1nc(N)nc2c1ncn2[C@@H]1O[C@H](CO)[C@@H](O)[C@H]1O)(c1ccccc1)c1ccccc1 [Example 21, N'-(2,2-Diphenylpropyl)-2-aminoadenosine]",> 10000,30,> 10,,,,
> 3000,>100,"Nc1nc(NCC(O)(c2ccccc2)c2ccccc2)c2ncn([C@@H]3O[C@H](CO)[C@@H](O)[C@H]3O)c2n1 [Example 23, N^6-(2,2-Diphenyl-2-hydroxyethyl)-2-aminoadenosine]",~1000,3,> 10,,,,

# Source: patent publication EP0139358B1, “N6-substituted diarylalkyl adenosines, processes for their production and pharmaceutical compositions comprising the same” (priority 1983, dated 1985)
